For one series, the target named is T1, Cox-2 enzyme (Ovis aries, UniProt P79208).
T1 construct: purchased Cayman Chemical 60120
T1 sequence (P79208 17-603): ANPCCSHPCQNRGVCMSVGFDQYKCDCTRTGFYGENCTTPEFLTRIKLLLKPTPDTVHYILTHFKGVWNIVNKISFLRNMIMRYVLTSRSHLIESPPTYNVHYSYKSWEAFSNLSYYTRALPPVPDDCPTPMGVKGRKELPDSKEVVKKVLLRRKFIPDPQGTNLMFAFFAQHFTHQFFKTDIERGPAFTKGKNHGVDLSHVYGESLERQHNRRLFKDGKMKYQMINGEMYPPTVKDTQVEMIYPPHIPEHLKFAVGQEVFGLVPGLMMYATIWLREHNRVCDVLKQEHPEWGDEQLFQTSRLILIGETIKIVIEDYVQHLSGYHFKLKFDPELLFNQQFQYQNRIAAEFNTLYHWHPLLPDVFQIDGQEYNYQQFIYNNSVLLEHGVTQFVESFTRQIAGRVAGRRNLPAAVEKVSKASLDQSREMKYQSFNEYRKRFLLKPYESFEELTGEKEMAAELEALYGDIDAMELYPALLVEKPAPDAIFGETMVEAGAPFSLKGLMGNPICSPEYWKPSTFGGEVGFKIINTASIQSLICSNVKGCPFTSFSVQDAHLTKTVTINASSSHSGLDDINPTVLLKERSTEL
The series is described as follows: Cox-1/Cox-2 enzyme assay (Cox-2). The class given is biochemical. Particulars: for IC50: enzyme assay. The method, then:
(§1) I. Cox-1/Cox-2 Enzyme Assay:
(§2) The Cox-1/Cox-2 enzyme assay for the inventive azetidine compounds is carried out according to the following description:
(§3) Immediately after the addition of the substrate, the slope corresponding to the optical density increase at 480 nm is recorded for 1 minute. The reaction is monitored with a Hewlett-Packard 8452A spectrophotometer.

The next series has as its system rats. The series can be described thus: Analgesia test in rats (carrageenan, thermal stimulus). The class given is in vivo. Particulars: Rattus norvegicus, oral route, 2 hours after administration, read-out: ED50 analgesic activity. As to the method:
III: Analgesia Test in Rats
The inventive compounds are tested for analgesic activity as described above is carried out as described in the publication of K. Hargreaves et al., Pain, 32, 77-88, (1988). The respective part of the description is hereby incorporated by reference and forms part of the disclosure.
The rats are transferred to the experimentation laboratory, where they remain in groups of 5, in makrolon cages with a barred floor to avoid coprophagy. At the beginning of the experiment, water and food were removed, and animals were adequately weighed and marked.
Each rat receives via subplantar injection 0.1 ml of sterile saline solution into the left hind paw, followed by 0.1 ml of a 2% (weight/volume) carrageenan suspension in sterile saline solution into the right hind paw.
Two hours after the subplantar injections of carrageenan and vehicle, each rat receives by oral route the compounds to be tested, suspended in 5% (weight/volume) gum arabic, administered at 10 ml per kg of body weight. Two hours after the administration of the compounds to be tested, the values for analgesic activity are determined. To this purpose, the rats are transferred to the methacrylate chambers of an analgesimeter provided with a glass floor. Once the acclimatisation period in the chambers is over (i.e. after 5 minutes) an infra-red beam lamp capable of producing a thermal stimulus, is placed below the rat's paws.
The thermal stimulus, previously calibrated at 10 Amperes, is applied to each of the hind paws with at least 1 minute intervals. The response of the rats to pain consists of raising the paw, thus avoiding contact with the floor. […] The rats are tested once only to avoid possible learning behaviour.

A further series deals with T2, Cox-1 enzyme (Ovis aries, UniProt P05979).
T2 construct: purchased Cayman Chemical 60100
T2 sequence (P05979 25-600): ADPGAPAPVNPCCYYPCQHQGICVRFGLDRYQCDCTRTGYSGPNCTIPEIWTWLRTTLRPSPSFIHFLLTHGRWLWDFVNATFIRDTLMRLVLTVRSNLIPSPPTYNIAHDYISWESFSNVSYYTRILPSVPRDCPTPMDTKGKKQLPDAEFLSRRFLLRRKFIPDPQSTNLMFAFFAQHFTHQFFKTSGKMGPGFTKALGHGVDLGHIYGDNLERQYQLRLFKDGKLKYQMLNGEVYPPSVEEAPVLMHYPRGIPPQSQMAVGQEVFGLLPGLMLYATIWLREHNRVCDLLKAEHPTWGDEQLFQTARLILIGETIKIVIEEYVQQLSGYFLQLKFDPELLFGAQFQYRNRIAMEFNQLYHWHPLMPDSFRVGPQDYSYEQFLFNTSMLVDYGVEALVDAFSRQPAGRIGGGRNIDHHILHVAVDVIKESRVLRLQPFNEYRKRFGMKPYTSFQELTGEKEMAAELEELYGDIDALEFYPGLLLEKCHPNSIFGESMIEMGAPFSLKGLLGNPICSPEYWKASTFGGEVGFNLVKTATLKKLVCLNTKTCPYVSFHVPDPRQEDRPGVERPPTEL
The series is described as follows: Cox-1/Cox-2 enzyme assay (Cox-1). The series is classed as biochemical. The settings on record: for IC50: enzyme assay. The method, then: as §1, §2, §3

The subject of series [1] is PGE2 production in rat gastric mucosa. The series is described as follows: PGE2 production in rat gastric mucosa. The settings on record: rats, oral route, read-out: PGE2 gastric mucose ED50. The class given is in vivo. As to the method: (§4) VI: PGE2 Production in Rat Inflammatory Exudate and Gastric Mucosa
(§5) The PGE2 production in rat inflammatory exudate and gastric mucosa is carried out as described in the publication of O Tofanetti et al., “Effect of nimesulide on cyclo-oxygenase activity in rat gastric mucosa and inflammatory exudate”, Med Sci Res 17, 745-746 (1989). The respective part of the description is hereby incorporated by reference and forms part of the present disclosure.
(§6) For this text 6 male wistar rats (Interfauna-St Feliú de Codines, Barcelona) of approximately 200 g (each approximately 6 weeks of age) are used. The compounds to be tested are administered via oral route in gum Arabic at 5% (weight/volume) at a rate of 10 ml/kg.
(§7) One hour after administration of the compounds and under halothane anaesthesia, each rat is implanted subcutaneously in the interescapular area a 40×15×5 mm polyester sponge, soaked in a 0.5% suspension of carrageenan. Rats are sacrificed 6 hours after the implant, the sponges are removed and squeezed. The exudates are collected and centrifuged at 6000×G for 15 minutes.
(§8) The rats's stomachs are removed and the gastric mucosa is detached from the underlying layers and by means of a 10 mm diameter die, mucosa samples from an area between the gastric corpus and pyloric antrum are taken. The mucosal PGE2 is extracted. PGE2 concentrations from the inflammatory exudates and the gastric mucosa are determined by means of inmmunoassay reagents of Cayman Chemical kit, Ann Arbor, Mich., U.S.A. (Catalogue number: 514010) according to the manufacturer's instructions.

The test system of series [2] is PGE2 production in rat inflammatory exudate. The series is described as follows: PGE2 production in rat inflammatory exudate. The class given is in vivo. Particulars: rats, oral route, carrageenan sponge implant, read-out: PGE2 Inflam. exudade ED50. The method, then: as §4, §5, §6, §7, §8

SMILES strings stand for the structures.

The term IC50 denotes the concentration that inhibits the measured activity by half. A high value points to weaker potency in that assay. Usually inhibition stands for how much of the control response was suppressed. In general, ED50 refers to the dose at which the effect has come halfway, by size or by number of responders. Broadly, the melting point is the temperature of the solid-liquid transition. On to `CC(C)(C)c1cc(C(=O)N2CC(O)C2)cc(C(C)(C)C)c1` [Example 2, (3,5-di-tert-butyl-phenyly)-(3-hydroxy-azetidin-1-yl)-methanone], for which the melting point was in the range of 146 to 149 °C. On Cox-2 enzyme, this compound had an IC50 of 1.8 µM. Further, the inhibition at 50 µM at Cox-2 enzyme (read-out: % inhibition 5 × 10^−5 M COX-2) was determined as 78%. Further, the median effective dose (ED50) in the series with rats was 1.65 mg/kg. The inhibition at 50 µM at Cox-1 enzyme (read-out: % inhibition 5 × 10^−5 M COX-1) stood at 9%. The ED50 in series [1] came out at 3.7 mg/kg. Moreover, the ED50 in series [2] came to 5.9 mg/kg.

In the case of `CC1C(O)CN1C(=O)c1cc(C(C)(C)C)c(O)c(C(C)(C)C)c1` (stereo not shown) [Example 4, (3,5-di-tert-butyl-4-hydroxy-phenyl)-(3-hydroxy-2-methyl-azetidin-1-yl)-methanone], the melting point was in the range of 162 to 166 °C. The compound also had an IC50 on Cox-2 enzyme of 3.75 µM. In the series with rats, the median effective dose (ED50) was determined as 0.7 mg/kg. Further, the IC50 against Cox-1 enzyme is 246 µM. The ED50 in series [1] was determined as 1 mg/kg. Also, the median effective dose (ED50) in series [2] was found to be 5.8 mg/kg.

Consider `CC(C)(C)c1cc(C(=O)N2CC(O)C2)cc2c1OCC2(C)C` [Example 14, (7-tert-butyl-3,3-dimethyl-2,3-dihydro-benzofuran-5-yl)-(3-hydroxy-azetidin-1-yl)-methanone], for which the melting point lay in the range of 144 to 148 °C. In addition, half-maximal inhibition against Cox-2 enzyme (IC50) was put at 0.6 µM. Besides, the ED50 in the series on rats amounted to 3 mg/kg. On Cox-1 enzyme, this compound displayed an IC50 of 48.3 µM. In addition, the ED50 in series [1] was found to be 2.7 mg/kg. For the same compound, in series [2], the ED50 is 1.8 mg/kg.

The values are drawn from US20070093469A1, “Substituted azetidine compounds as cyclooxygenase-1-cyclooxygenase-2 inhibitors, and their preparation and use as medicaments” (LABORATORIOS DEL DR. ESTEVE S.A, priority 2004, published 2007).
